Test results from patent US6800645B1, “Substituted azabicyclic compounds” (Aventis Pharma Limited, priority 1996, dated 2004).

Structure (SMILES)	melting point
COCc1nc2c(OC)ccc(C(=O)Cc3ccncc3)c2[nH]1 [Example 4, 1-(7-Methoxy-2-methoxymethyl-3H-benzimidazol-4-yl)-2-(4-pyridyl)ethanone]	218 to 220 °C (dec.)
COCc1nc2c(OC)ccc(C(O)(Cc3ccncc3)Cc3ccncc3)c2[nH]1 [Example 5, 1,3-bis-(4-pyridyl)-2-(7-methoxy-2-methoxymethyl-3H-benzimidazol-4-yl)-propan-2-ol]	210 °C (dec.)
Cc1ccc(S(=O)(=O)n2cc(C=O)c3ccc(C(=O)Nc4c(Cl)cncc4Cl)cc32)cc1 [Example 17, N-(3,5-Dichloro-pyridin-4-yl)-3-formyl-1-(toluene-4-sulphonyl)-1H-indole-6-carboxamide]	245 °C
COc1ccc(Cn2cc(C)c3ccc(C(=O)c4ccccc4)cc32)cc1 [Example 24, [1-(4-Methoxy-benzyl)-3-methyl-1H-indol-6-yl]-phenyl methanone]	146 to 147 °C
